{"source": "patent US6911443B2", "about": "(Bayer Aktiengesellschaft, priority 2000, dated 2005)"}
{"biological_target": "T1, human Syk (GST-Syk) (Homo sapiens, UniProt P43405)", "T1 construct": "A cDNA fragment encoding human Syk openreading frame was cloned; made in house; host or cells: Sf21 insect cells (baculovirus, transfer vector pAcG2T)", "assay": "Syk tyrosine kinase inhibitory assay", "assay_type": "biochemical", "conditions": "in vitro; compounds as yielded by solid phase synthesis, purity about 40 to 90%; read-out: Activity grade (IC50 class)", "outline": "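GST-tagged human Syk from baculovirus/Sf21, 0.65 nM final, with 3 μM biotinylated 30-residue activation-loop peptide and 30 μM ATP in Tris pH 8.0/MgCl2 buffer, 0.25% DMSO; 1 h at room temperature. Phosphopeptide captured on streptavidin, detected by europium-labelled anti-phosphotyrosine 4G10 time-resolved fluorescence.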", "units": {"IC50": "nM"}}
{"smiles": "COc1ccc(-c2cc3nccn3c(Nc3ccccc3Cl)n2)cc1OC", "note": "[Example 11-55]", "IC50": "< 500"}
{"smiles": "COc1ccc(-c2cc3nccn3c(Nc3ccccc3[N+](=O)[O-])n2)cc1OC", "note": "[Example 11-56]", "IC50": "< 500"}
{"smiles": "COc1ccc(-c2cc3nccn3c(Nc3ccc(F)c(F)c3)n2)cc1OC", "note": "[Example 11-57]", "IC50": "< 500"}
{"smiles": "COc1cccc(Nc2nc(-c3ccc(OC)c(OC)c3)cc3nccn23)c1", "note": "[Example 11-58]", "IC50": "< 500"}
{"smiles": "COc1ccc(-c2cc3nccn3c(Nc3cccc(C(C)=O)c3)n2)cc1OC", "note": "[Example 11-59]", "IC50": "< 500"}
{"smiles": "COc1ccc(-c2cc3nccn3c(Nc3ccc(F)cc3)n2)cc1OC", "note": "[Example 11-60]", "IC50": "< 500"}
{"smiles": "COc1ccc(-c2cc3nccn3c(Nc3ccc(Cl)cc3)n2)cc1OC", "note": "[Example 11-61]", "IC50": "< 500"}
{"smiles": "COc1ccc(-c2cc3nccn3c(Nc3ccc(N)cc3)n2)cc1OC", "note": "[Example 11-62]", "IC50": "< 500"}
{"smiles": "COc1ccc(-c2cc3nccn3c(Nc3ccc(CC#N)cc3)n2)cc1OC", "note": "[Example 11-63]", "IC50": "< 500"}
{"smiles": "COc1ccc(Nc2nc(-c3ccc(OC)c(OC)c3)cc3nccn23)c(OC)c1", "note": "[Example 11-65]", "IC50": "< 500"}
{"smiles": "COc1ccc(-c2cc3nccn3c(Nc3cccc(C(=N)N)c3)n2)cc1OC", "note": "[Example 11-66]", "IC50": "< 500"}
{"smiles": "COc1ccc(-c2cc3nccn3c(Nc3ccc(C(=N)N)cc3)n2)cc1OC", "note": "[Example 11-67]", "IC50": "< 500"}
{"smiles": "CCN(CCO)c1ccc(Nc2nc(-c3ccc(OC)c(OC)c3)cc3nccn23)cc1", "note": "[Example 11-68]", "IC50": "< 500"}
{"smiles": "COc1ccc(-c2cc3nccn3c(Nc3cccc(OC(F)(F)F)c3)n2)cc1OC", "note": "[Example 11-69]", "IC50": "< 500"}
{"smiles": "COc1ccc(-c2cc3nccn3c(Nc3cccc([N+](=O)[O-])c3)n2)cc1OC", "note": "[Example 11-70]", "IC50": "< 500"}
{"smiles": "COc1ccc(-c2cc3nccn3c(Nc3ccc(C(F)(F)F)cc3)n2)cc1OC", "note": "[Example 11-71]", "IC50": "< 500"}
{"smiles": "CNC(=O)c1cccc(Nc2nc(-c3ccc(OC)c(OC)c3)cc3nccn23)c1", "note": "[Example 11-72]", "IC50": "< 500"}
{"smiles": "CCCCNS(=O)(=O)c1cccc(Nc2nc(-c3ccc(OC)c(OC)c3)cc3nccn23)c1", "note": "[Example 11-73]", "IC50": "< 500"}
{"smiles": "COc1ccc(-c2cc3nccn3c(Nc3ccc(NCCN(C)C)cc3)n2)cc1OC", "note": "[Example 11-74]", "IC50": "< 500"}
{"smiles": "COc1ccc(Nc2nc(-c3ccc(OC)c(OC)c3)cc3nccn23)c(C(=O)O)c1", "note": "[Example 11-75]", "IC50": "< 500"}
{"smiles": "COc1ccc(-c2cc3nccn3c(Nc3ccc(S(N)(=O)=O)cc3)n2)cc1OC", "note": "[Example 11-76]", "IC50": "< 500"}
{"smiles": "COc1ccc(-c2cc3nccn3c(Nc3ccccc3C(=O)O)n2)cc1OC", "note": "[Example 11-77]", "IC50": "< 500"}
{"smiles": "COc1ccc(-c2cc3nccn3c(Nc3ccc(I)cc3C(N)=O)n2)cc1OC", "note": "[Example 11-78]", "IC50": "< 500"}
{"smiles": "COc1ccc(-c2cc3nccn3c(Nc3cccc(N(C)C)c3)n2)cc1OC", "note": "[Example 11-81]", "IC50": "< 500"}
{"smiles": "COc1ccc(-c2cc3nccn3c(Nc3ccc(NCCN4CCOCC4)cc3)n2)cc1OC", "note": "[Example 11-82]", "IC50": "< 500"}
{"smiles": "COc1ccc(Nc2nc(-c3ccc(OC)c(OC)c3)cc3nccn23)cc1NC(=O)CN1CCOCC1", "note": "[Example 11-83]", "IC50": "500 to 2000"}
{"smiles": "COc1ccc(Nc2nc(-c3ccc(OC)c(OC)c3)cc3nccn23)cc1OC", "note": "[Example 11-84]", "IC50": "< 500"}
{"smiles": "COc1ccc(-c2cc3nccn3c(Nc3ccc(Br)cc3C(=O)O)n2)cc1OC", "note": "[Example 11-85]", "IC50": "< 500"}
{"smiles": "COC(=O)c1cc(Br)ccc1Nc1nc(-c2ccc(OC)c(OC)c2)cc2nccn12", "note": "[Example 11-86]", "IC50": "< 500"}
{"smiles": "COc1ccc(-c2cc3nccn3c(Nc3ccc(Br)cc3F)n2)cc1OC", "note": "[Example 11-87]", "IC50": "< 500"}
{"smiles": "COc1ccc(-c2cc3nccn3c(Nc3ccc(Br)cc3Cl)n2)cc1OC", "note": "[Example 11-88]", "IC50": "< 500"}
{"smiles": "COc1ccc(-c2cc3nccn3c(Nc3ccc4[nH]c(=O)[nH]c4c3)n2)cc1OC", "note": "[Example 11-89]", "IC50": "< 500"}
{"smiles": "COc1ccc(-c2cc3nccn3c(Nc3ccc(NCCCN4CCOCC4)cc3)n2)cc1OC", "note": "[Example 11-90]", "IC50": "< 500"}
